According to US20040076968A1, “Method for detecting pre-disposition to hepatotoxicity” (priority 2000, published 2004):

How the values were obtained:
UGT1A7 gene = experiment: Association of UGT1A7 polymorphisms with liver function abnormality in tolcapone-treated patients (case-control genotyping); format: in vivo, human
Description: Disease severity had already been controlled for by the original study inclusion criteria.
For all other single nucleotide polymorphisms (SNPs) discovery and genotyping was done by double-stranded DNA sequencing using an ABI capillary sequencer and Big Dye chemistry (ABI). The primers used to amplify all exons are shown below and were also used as sequencing primers. Publicly available genomic sequences were used as references for primer design. All polymorphisms were targeted with these pairs-of-primer sets:
Fourty nanograms of genomic DNA were PCR-amplified in 50 μl reactions using an automated PCR machine. Reaction conditions varied as follows. For the amplification of the UGT1A6-fragment conditions were as follows: 10 mM Tris pH 8.3, 50 mM KCl, 1.5 mM MgCl2, 0.2 mM of each dNTP, 0.4 μM of each primer and 1.5U Boehringer Taq Polymerase. The thermocycling protocol consisted of an initial incubation of 95° C. for 15 min. followed by 35 cycles of 94° C. for 1 min., 57° C. for 30 sec., 72° C. for 1 min., and one final extension step of 72° C. for 10 min. The UGT1A7-1 fragment was amplified using Qiagen PCR buffer with 1.5 mM MgCl2, 0.2 mM of each dNTP, 0.4 μM of each primer and 1.5U Boehringer Taq Polymerase. The thermocycling protocol was the same as for UGT1A6-fragment with one exception: the annealing temperature was 61° C. For UGT1A7-2 fragment PCR conditions were as follows: 150 mM Tris pH 8.5, 15 mM (NH4)2SO4, 3.5 mM MgCl2, 0.2 mM of each dNTP, 0.4 μM of each primer and 1.5U Qiagen Hot Start Taq Polymerase. Thermocycling was done using a touch-down PCR protocol. After an iniatial amplification of 95° C. for 10 min. followed 5 cycles of 95° C. for 1 min., 62° C. for 30 sec. (minus 0.5° C. per cycle), 72° C. for 1 min and thirty cycles of 95° C. for 1 min., 60° C. for 30 sec., 72° C. for 1 min. and a final extension step of 72° C. for 10 min. After PCR amplification fragments were purified using the Qiaquick PCR purification kit on a Biorobot 9600. Cycle sequencing was performed on an automated PCR machine using ABI Big Dye terminator chemistry according to the manufacturer's intruction with the following changes: 2.5-5 ng/100 bp of PCR product were mixed with 2 μl Big Dye terminatior mix, oligonucleotide primer concentration was 10 pmol, if necessary 5% DMSO was added to the reaction; the final reaction volume was 10 μl. Sequencing reactions were subjected to 28 cycles at 93° C. for 30 sec, 48° C. for 30 sec, and 58° C. for 120 sec., followed by an ethanol/NaOAc precipitation. After decanting the ethanol, samples were evaporated to dryness using a SpeedVac for 2 min. and were resuspended in 45 μl ultrapure water (MERCK, HPLC grade). […] were loaded on an ABI 3700 capillary sequencer using POP5 as a polymer. After sequencing, the polymorphism analyses were done using Polyphred software (licenced from University of Washington).
The patient samples were divided into two groups.
For each genotype, the following analyses were performed:
a) Analysis of the entire genotype: patients were classified according to the following three categories: homozygous 1/1 (two copies of allele 1 and no copies of allele 2), heterozygous 1/2 (one copy of allele 1 and one copy of allele 2) or homozygous 2/2 (no copies of allele 1 and two copies of allele 2). Analysis was conducted to assess whether there were differences in the proportion of case patients in each of these groups, compared with the proportion of control patients. The Cochran-Maentel-Hanszel (CMH) test was applied to the data presented in a 2-by-3 table (the two columns indicating presence or absence of liver function abnormality and the three rows indicating the three categories of the genotype).

[1] = Clinical trials for tolcapone in patients with Parkinson's disease: liver transaminases; format: in vivo, human; details: rare circumstances
Description: There was therefore a desire to establish whether there is a correlation between the occurrence of such liver abnormalities, which are indicators of liver toxicity and certain genetic pre-dispositions.

[2] = human subjects; cited from earlier work

n (%) of patients (UGT1A7 gene; UGT1A7_555 silent or Arg131Lys, Genotype Heterozygous A/C, Liver Function Abnormality Absent): 124 (46.1%)
n (%) of patients (UGT1A7 gene; UGT1A7_555 silent or Arg131Lys, Genotype Heterozygous A/C, Liver Function Abnormality Present): 60 (45.5%)
n (%) of patients (UGT1A7 gene; UGT1A7_555 silent or Arg131Lys, Genotype Homozygous A/A, Liver Function Abnormality Absent): 96 (35.7%)
n (%) of patients (UGT1A7 gene; UGT1A7_555 silent or Arg131Lys, Genotype Homozygous A/A, Liver Function Abnormality Present): 58 (43.9%)
n (%) of patients (UGT1A7 gene; UGT1A7_555 silent or Arg131Lys, Genotype Homozygous G/G, Liver Function Abnormality Absent): 49 (18.2%)
n (%) of patients (UGT1A7 gene; UGT1A7_555 silent or Arg131Lys, Genotype Homozygous G/G, Liver Function Abnormality Present): 14 (10.6%)
n (%) of patients (UGT1A7 gene; UGT1A7_556 Arg131Lys or Gln, Allele A Absent, Liver Function Abnormality Absent): 49 (18.3%)
n (%) of patients (UGT1A7 gene; UGT1A7_556 Arg131Lys or Gln, Allele A Absent, Liver Function Abnormality Present): 14 (10.6%)
n (%) of patients (UGT1A7 gene; UGT1A7_556 Arg131Lys or Gln, Allele A Present, Liver Function Abnormality Absent): 219 (81.7%)
n (%) of patients (UGT1A7 gene; UGT1A7_556 Arg131Lys or Gln, Allele A Present, Liver Function Abnormality Present): 118 (89.4%)
n (%) of patients (UGT1A7 gene; UGT1A7_556 Arg131Lys or Gln, Allele G Absent, Liver Function Abnormality Absent): 96 (35.8%)
n (%) of patients (UGT1A7 gene; UGT1A7_556 Arg131Lys or Gln, Allele G Absent, Liver Function Abnormality Present): 59 (44.7%)
n (%) of patients (UGT1A7 gene; UGT1A7_556 Arg131Lys or Gln, Allele G Present, Liver Function Abnormality Absent): 172 (64.2%)
n (%) of patients (UGT1A7 gene; UGT1A7_556 Arg131Lys or Gln, Allele G Present, Liver Function Abnormality Present): 73 (55.3%)
n (%) of patients (UGT1A7 gene; UGT1A7_556 Arg131Lys or Gln, Genotype Heterozygous A/G, Liver Function Abnormality Absent): 123 (45.9%)
n (%) of patients (UGT1A7 gene; UGT1A7_556 Arg131Lys or Gln, Genotype Heterozygous A/G, Liver Function Abnormality Present): 59 (44.7%)
n (%) of patients (UGT1A7 gene; UGT1A7_556 Arg131Lys or Gln, Genotype Homozygous A/A, Liver Function Abnormality Absent): 96 (35.8%)
n (%) of patients (UGT1A7 gene; UGT1A7_556 Arg131Lys or Gln, Genotype Homozygous A/A, Liver Function Abnormality Present): 44 (33.8%)
n (%) of patients (UGT1A7 gene; UGT1A7_556 Arg131Lys or Gln, Genotype Homozygous G/G, Liver Function Abnormality Absent): 49 (18.3%)
n (%) of patients (UGT1A7 gene; UGT1A7_556 Arg131Lys or Gln, Genotype Homozygous G/G, Liver Function Abnormality Present): 14 (10.6%)
n (%) of patients (UGT1A7 gene; UGT1A7_786 Trp208Arg, Allele G Absent, Liver Function Abnormality Absent): 124 (46.3%)
n (%) of patients (UGT1A7 gene; UGT1A7_786 Trp208Arg, Allele G Absent, Liver Function Abnormality Present): 46 (34.3%)
n (%) of patients (UGT1A7 gene; UGT1A7_786 Trp208Arg, Allele G Present, Liver Function Abnormality Absent): 144 (53.7%)
n (%) of patients (UGT1A7 gene; UGT1A7_786 Trp208Arg, Allele G Present, Liver Function Abnormality Present): 86 (65.7%)
n (%) of patients (UGT1A7 gene; UGT1A7_786 Trp208Arg, Allele T Absent, Liver Function Abnormality Absent): 30 (11.2%)
n (%) of patients (UGT1A7 gene; UGT1A7_786 Trp208Arg, Allele T Absent, Liver Function Abnormality Present): 26 (19.4%)
n (%) of patients (UGT1A7 gene; UGT1A7_786 Trp208Arg, Allele T Present, Liver Function Abnormality Absent): 238 (88.8%)
n (%) of patients (UGT1A7 gene; UGT1A7_786 Trp208Arg, Allele T Present, Liver Function Abnormality Present): 108 (80.6%)
n (%) of patients (UGT1A7 gene; UGT1A7_786 Trp208Arg, Genotype Heterozygous T/C, Liver Function Abnormality Absent): 114 (42.5%)
n (%) of patients (UGT1A7 gene; UGT1A7_786 Trp208Arg, Genotype Heterozygous T/C, Liver Function Abnormality Present): 62 (46.3%)
n (%) of patients (UGT1A7 gene; UGT1A7_786 Trp208Arg, Genotype Homozygous C/C, Liver Function Abnormality Absent): 30 (11.2%)
n (%) of patients (UGT1A7 gene; UGT1A7_786 Trp208Arg, Genotype Homozygous C/C, Liver Function Abnormality Present): 26 (19.4%)
n (%) of patients (UGT1A7 gene; UGT1A7_786 Trp208Arg, Genotype Homozygous T/T, Liver Function Abnormality Absent): 124 (46.3%)
n (%) of patients (UGT1A7 gene; UGT1A7_786 Trp208Arg, Genotype Homozygous T/T, Liver Function Abnormality Present): 46 (34.3%)
SMILES: Cc1ccc(C(=O)c2cc(O)c(O)c([N+](=O)[O-])c2)cc1 [tolcapone]
effect on liver transaminase activity [1]: reversible asymptomatic increase in liver transaminase activity
main pathway of elimination from the body [2]: glucuronidation
